How the values were obtained:
Type in all cases: in vivo
[1] = system: windgrass (Apera spica-venti); assay: Test B postemergence plant response; conditions: Postemergence; for Windgrass plant response rating: 250 g ai/ha, scale 0 to 100
How it was run: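 Plants grown in peat/vermiculite medium were sprayed postemergence at 2–18 cm height (1- to 4-leaf stage). After 13–15 days in the greenhouse, response was rated visually against untreated controls on a 0–100 scale (0 no effect, 100 complete control).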

[2] = system: wheat (Triticum aestivum); assay: Test A pre-/postemergence plant response
How it was run: (§1)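 Visual injury rating on a 0–100 scale (0 = no effect, 100 = complete control) was made versus untreated controls after about ten days in the greenhouse. Compounds, formulated in a non-phytotoxic solvent mix containing surfactant, were sprayed preemergence onto loam/sand soil and postemergence onto one- to two-leaf plants.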

[3] = system: large crabgrass (Digitaria sanguinalis); assay: Test A pre-/postemergence plant response
How it was run: as §1

[4] = system: pigweed (Amaranthus retroflexus); assay: Test A pre-/postemergence plant response
How it was run: as §1

[5] = system: barnyardgrass (Echinochloa crus-galli); assay: Test A pre-/postemergence plant response
How it was run: as §1

[6] = system: giant foxtail (Setaria faberii); assay: Test A pre-/postemergence plant response
How it was run: as §1

corn (Zea mays) = assay: Test A pre-/postemergence plant response
How it was run: as §1

[7] = system: velvetleaf (Abutilon theophrasti); assay: Test A pre-/postemergence plant response
How it was run: as §1

[8] = system: morningglory (Ipomoea spp.); assay: Test A pre-/postemergence plant response
How it was run: as §1

[9] = system: ducksalad (Heteranthera limosa); assay: Test B flooded paddy test; conditions: for Plant response rating, Flood, Ducksalad: 250 g ai/ha, flooded paddy test, visual rating on 0 to 100 scale (0 no effect, 100 complete control) after 13 to 15 days; for Plant response rating, Ducksalad: Flood (flooded paddy test), 13 to 15 days
How it was run: (§2)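 Plants were grown to the 2-leaf stage, then pots were flooded to 3 cm above the soil and compounds were applied directly into the paddy water. That depth was held throughout. After 13 to 15 days in a greenhouse, injury was visually rated against controls on a 0–100 scale.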

[10] = system: umbrella sedge (Cyperus difformis); assay: Test B flooded paddy test; conditions: for Plant response rating, Flood, Sedge, Umbrella: 250 g ai/ha, flooded paddy test, visual rating on 0 to 100 scale (0 no effect, 100 complete control) after 13 to 15 days; for Plant response rating, Sedge, Umbrella: Flood (flooded paddy test), 13 to 15 days
How it was run: as §2

[11] = system: barnyardgrass (Echinochloa crus-galli); assay: Test B flooded paddy test; conditions: for Plant response rating, Flood, Barnyardgrass: 250 g ai/ha, flooded paddy test, visual rating on 0 to 100 scale (0 no effect, 100 complete control) after 13 to 15 days; for Plant response rating, Barnyardgrass: Flood (flooded paddy test), 13 to 15 days
How it was run: as §2

rice (Oryza sativa) = assay: Test B flooded paddy test; conditions: for Plant response rating, Flood, Rice: 250 g ai/ha, flooded paddy test, visual rating on 0 to 100 scale (0 no effect, 100 complete control) after 13 to 15 days; for Plant response rating, Rice: Flood (flooded paddy test), 13 to 15 days
How it was run: as §2

[12] = 31 g ai/ha, scale 0 to 100 (0 no effect, 100 complete control)
[13] = 62 g ai/ha, scale 0 (no effect) to 100 (complete control), 13 to 15 days
[14] = 125 g ai/ha, visual rating after 13 to 15 days, scale 0 (no effect) to 100 (complete control)
[15] = Postemergence, 125 g ai/ha, visual injury, 0 to 100 scale (0 no effect, 100 complete control), approx. ten days
[16] = Postemergence, 500 g ai/ha, 0 to 100 scale, 0 = no effect, 100 = complete control, approx. ten days
[17] = Preemergence, 125 g ai/ha, 0 to 100 scale, 0 = no effect, 100 = complete control
[18] = Preemergence, 500 g ai/ha, visual injury, 0 to 100 scale (0 no effect, 100 complete control), approx. ten days
[19] = 31 g ai/ha, scale of 0 to 100 where 0 is no effect and 100 is complete control
[20] = 62 g ai/ha, scale 0 to 100, 0 is no effect, 100 is complete control
[21] = 125 g ai/ha, scale 0 to 100, 0 is no effect, 100 is complete control

5-[(2-hydroxy-6-oxo-1-cyclohexen-1-yl)carbonyl]-3-(2-methoxyethyl)-2-(3-thienyl)-4(3H)-pyrimidinone [Compound 97]
Plant response rating, Windgrass [1, 12]: 5
Plant response rating, Windgrass [1, 13]: 10
Plant response rating, Windgrass [1, 14]: 30
Windgrass plant response rating [1]: 40
Wheat plant response rating [2, 15]: 40
Plant response rating, Wheat [2, 16]: 60
Plant response rating, Wheat [2, 17]: 0
Plant response rating, Wheat [2, 18]: 50
Crabgrass, Large plant response rating [3, 15]: 90
Plant response rating, Crabgrass, Large [3, 16]: 100
Plant response rating, Crabgrass, Large [3, 17]: 90
Plant response rating, Crabgrass, Large [3, 18]: 100
Pigweed plant response rating [4, 15]: 100
Plant response rating, Pigweed [4, 16]: 100
Plant response rating, Pigweed [4, 17]: 100
Plant response rating, Pigweed [4, 18]: 100
Barnyardgrass plant response rating [5, 15]: 90
Plant response rating, Barnyardgrass [5, 16]: 90
Plant response rating, Barnyardgrass [5, 17]: 30
Plant response rating, Barnyardgrass [5, 18]: 90
Foxtail, Giant plant response rating [6, 15]: 90
Plant response rating, Foxtail, Giant [6, 16]: 100
Plant response rating, Foxtail, Giant [6, 17]: 70
Plant response rating, Foxtail, Giant [6, 18]: 100
Corn plant response rating (corn (Zea mays); [15]): 30
Plant response rating, Corn (corn (Zea mays); [16]): 90
Plant response rating, Corn (corn (Zea mays); [17]): 0
Plant response rating, Corn (corn (Zea mays); [18]): 0
Velvetleaf plant response rating [7, 15]: 100
Plant response rating, Velvetleaf [7, 16]: 100
Plant response rating, Velvetleaf [7, 17]: 90
Plant response rating, Velvetleaf [7, 18]: 100
Morningglory plant response rating [8, 15]: 100
Plant response rating, Morningglory [8, 16]: 100
Plant response rating, Morningglory [8, 17]: 10
Plant response rating, Morningglory [8, 18]: 90
Plant response rating, Flood, Ducksalad [9]: 80
Plant response rating, Ducksalad [9, 19]: 0
Plant response rating, Ducksalad [9, 20]: 20
Plant response rating, Ducksalad [9, 21]: 75
Plant response rating, Flood, Sedge, Umbrella [10]: 55
Plant response rating, Sedge, Umbrella [10, 19]: 0
Plant response rating, Sedge, Umbrella [10, 20]: 40
Plant response rating, Sedge, Umbrella [10, 21]: 55
Plant response rating, Flood, Barnyardgrass [11]: 0
Plant response rating, Barnyardgrass [11, 19]: 0
Plant response rating, Barnyardgrass [11, 20]: 0
Plant response rating, Barnyardgrass [11, 21]: 0
Plant response rating, Flood, Rice (rice (Oryza sativa)): 0
Plant response rating, Rice (rice (Oryza sativa); [19]): 0
Plant response rating, Rice (rice (Oryza sativa); [20]): 0
Plant response rating, Rice (rice (Oryza sativa); [21]): 0

5-[(2-hydroxy-6-oxo-1-cyclohexen-1-yl)carbonyl]-3-phenyl-2-(3-pyridinyl)-4(3H)-pyrimidone [Compound 113]
Plant response rating, Windgrass [1, 12]: 5
Plant response rating, Windgrass [1, 13]: 5
Plant response rating, Windgrass [1, 14]: 5
Windgrass plant response rating [1]: 5
Wheat plant response rating [2, 15]: 0
Plant response rating, Wheat [2, 16]: 40
Plant response rating, Wheat [2, 17]: 0
Plant response rating, Wheat [2, 18]: 0
Crabgrass, Large plant response rating [3, 15]: 50
Plant response rating, Crabgrass, Large [3, 16]: 70
Plant response rating, Crabgrass, Large [3, 17]: 0
Plant response rating, Crabgrass, Large [3, 18]: 40
Pigweed plant response rating [4, 15]: 80
Plant response rating, Pigweed [4, 16]: 100
Plant response rating, Pigweed [4, 17]: 10
Plant response rating, Pigweed [4, 18]: 80
Barnyardgrass plant response rating [5, 15]: 30
Plant response rating, Barnyardgrass [5, 16]: 70
Plant response rating, Barnyardgrass [5, 17]: 0
Plant response rating, Barnyardgrass [5, 18]: 10
Foxtail, Giant plant response rating [6, 15]: 40
Plant response rating, Foxtail, Giant [6, 16]: 60
Plant response rating, Foxtail, Giant [6, 17]: 0
Plant response rating, Foxtail, Giant [6, 18]: 20
Corn plant response rating (corn (Zea mays); [15]): 0
Plant response rating, Corn (corn (Zea mays); [16]): 40
Plant response rating, Corn (corn (Zea mays); [17]): 0
Plant response rating, Corn (corn (Zea mays); [18]): 0
Velvetleaf plant response rating [7, 15]: 100
Plant response rating, Velvetleaf [7, 16]: 100
Plant response rating, Velvetleaf [7, 17]: 60
Plant response rating, Velvetleaf [7, 18]: 100
Morningglory plant response rating [8, 15]: 100
Plant response rating, Morningglory [8, 16]: 100
Plant response rating, Morningglory [8, 17]: 0
Plant response rating, Morningglory [8, 18]: 40
Plant response rating, Flood, Ducksalad [9]: 0
Plant response rating, Ducksalad [9, 19]: 0
Plant response rating, Ducksalad [9, 20]: 0
Plant response rating, Ducksalad [9, 21]: 0
Plant response rating, Flood, Sedge, Umbrella [10]: 0
Plant response rating, Sedge, Umbrella [10, 19]: 0
Plant response rating, Sedge, Umbrella [10, 20]: 0
Plant response rating, Sedge, Umbrella [10, 21]: 0
Plant response rating, Flood, Barnyardgrass [11]: 0
Plant response rating, Barnyardgrass [11, 19]: 0
Plant response rating, Barnyardgrass [11, 20]: 0
Plant response rating, Barnyardgrass [11, 21]: 0
Plant response rating, Flood, Rice (rice (Oryza sativa)): 0
Plant response rating, Rice (rice (Oryza sativa); [19]): 0
Plant response rating, Rice (rice (Oryza sativa); [20]): 0
Plant response rating, Rice (rice (Oryza sativa); [21]): 0

Reference: patent US8952024B2, “Herbicidal pyrimidone derivatives” (E I du Pont de Nemours and Company, priority 2009, dated 2015)
